Experimental findings from patent US12018024B2, “Compounds and compositions for the treatment of cryptosporidiosis” (Novartis AG, priority 2020, dated 2024) are described below.

One assay concerns the target C. parvum PI(4)K (Cryptosporidium parvum, UniProt Q5CVD3). Put plainly: CpPI(4)K enzymatic assay (Transcreener ADP2 FP). In kind it is biochemical. An excerpt: Baculovirus expression and purification of C. parvum phosphatidylinositol 4-kinase: The full-length coding sequence of C. parvum PI(4)K (cgd8_4500, 1114 amino acids) was codon-optimized for baculovirus expression, synthesized and cloned into pFastBac-HTb (Invitrogen 10584-027) in frame with the amino-terminal polyhistidine tag using the BamHI and HindIII restriction sites. Recombinant pFastBacHTb-CpPI(4)K bacmid clones were generated by site-specific transposition in E. coli DH10Bac (Invitrogen 10361-012). The bacmid sequence was confirmed by direct DNA sequencing to confirm a lack of mutations across the whole gene. The subsequent steps for bacmid isolation, transfection and selection of the recombinant viruses were performed according to the manufacturer's protocol (Bac-to-Bac system #10359, Invitrogen).
SF9 cells, cultured in […] serum-free medium, were transfected with recombinant baculovirus at 1/200 (v/v) and incubated at 27° C. for 72 h. The pellets were collected after centrifugation and re-suspended in cell lysis buffer (20 mM Tris-HCl, pH 7.5, 300 mM NaCl, 1 mM DTT, 20 mM imidazole, 0.01% Triton X-100 and 1× complete protease inhibitor cocktail without EDTA (Roche Diagnostics 04693116001)). The cell suspension was lysed by sonication and the clarified supernatant was loaded onto a 1 ml HisTrap affinity column (GE Healthcare) pre-equilibrated with buffer A (20 mM Tris-HCl, pH 7.5, 300 mM NaCl, 1 mM DTT, 20 mM Imidazole, and 1× complete protease inhibitor cocktail without EDTA). The column was washed with buffer B (buffer A containing 45 mM imidazole) and the bound protein of interest was eluted with buffer C (buffer A with 90 mM imidazole). The fractions containing CpPI(4)K were pooled, concentrated using Amicon Ultra-15 and purified by a gel-filtration column (Hi-Load 26/60 Superdex 200, GE Healthcare) equilibrated with 20 mM Tris, pH 7.5, 300 mM NaCl, 1 mM DTT and 1× protease inhibitor cocktail without EDTA. The concentrations of the purified protein (Mw 132.39 kda) was determined by using the protein molar extinction coefficient (ε280 nm=133,810 M^−1 cm^−1). Aliquots were flash frozen in liquid nitrogen and immediately stored at −80° C.
PI(4)K enzymatic Assay The CpPI(4)K enzymatic assay was performed as described earlier with a some modifications (McNamara et al., 2013). Briefly, L-α-phosphatidylinositol (Avanti Polar Lipid 840046), dissolved in 3% n-octylglucoside (Roche Diagnostics 10634425001), was used as the lipid substrate for the PI(4)K activity assay. CpPI(4)K was assayed using Transcreener ADP2 FP detection kit (BellBrook 3010) in a black, solid 384-well plate (Corning 3575). The final assay volume was 10 μl and contained 3 nM of the respective CpPI(4)K construct in 10 mM Tris, pH 7.5, 1 mM DTT, 3 μM ATP, 5 mM Mn2+, 0.05% Triton X-100 and 10 μM phosphatidylinositol/octylglucoside. The enzyme reaction was performed for 50 minutes at room temperature and was stopped by adding 10 μl of detection mix containing 1× stop buffer (50 mM HEPES, pH7.5, 400 mM NaCl, 20 mM EDTA, and 0.02% Brij-35), 2 nM AMP Alexa Fluor 633 tracer, and 20 μg ml^−1 ADP antibody. Fluorescence polarization measurements were performed on the Infinite M1000 plate reader (Tecan) with λex=635 nm and λem=680 nm (20-nm bandwidth). IC50 values were calculated using Graphpad Prism software.

For a further assay, the target named is H.s. PI(4)K (Homo sapiens, UniProt Q9UBF8). Put plainly: H.s. PI(4)K IC50. In kind it is biochemical. The conditions noted are these: read-out: (d) H.s.* PI(4)K IC50.
Chain of H.s. PI(4)K (Q9UBF8 2-816 limits assumed): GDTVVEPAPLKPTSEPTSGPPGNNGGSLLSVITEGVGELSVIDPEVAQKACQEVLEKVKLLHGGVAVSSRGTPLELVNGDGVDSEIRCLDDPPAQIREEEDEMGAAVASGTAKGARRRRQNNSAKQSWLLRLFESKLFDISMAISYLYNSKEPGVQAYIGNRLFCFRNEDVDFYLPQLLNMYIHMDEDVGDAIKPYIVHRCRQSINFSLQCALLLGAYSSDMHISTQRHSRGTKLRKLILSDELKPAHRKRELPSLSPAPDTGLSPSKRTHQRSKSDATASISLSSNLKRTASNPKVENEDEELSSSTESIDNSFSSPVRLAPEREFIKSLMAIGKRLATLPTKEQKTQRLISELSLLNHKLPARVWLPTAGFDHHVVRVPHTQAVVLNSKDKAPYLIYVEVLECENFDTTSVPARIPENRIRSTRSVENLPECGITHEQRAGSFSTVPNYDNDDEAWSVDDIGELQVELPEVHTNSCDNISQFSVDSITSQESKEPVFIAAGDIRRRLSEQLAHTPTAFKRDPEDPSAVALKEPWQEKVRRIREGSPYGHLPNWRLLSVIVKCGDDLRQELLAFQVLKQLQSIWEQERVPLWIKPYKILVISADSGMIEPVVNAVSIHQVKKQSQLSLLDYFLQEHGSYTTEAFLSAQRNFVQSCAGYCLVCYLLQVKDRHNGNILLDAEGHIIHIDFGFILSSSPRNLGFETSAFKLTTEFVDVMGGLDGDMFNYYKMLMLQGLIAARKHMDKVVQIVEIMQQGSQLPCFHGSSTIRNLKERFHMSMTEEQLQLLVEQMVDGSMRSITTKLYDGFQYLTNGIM
A further assay has as its system Cryptosporidium parvum. The experiment in a line: Cytopathic effect (CPE) based assay, C. parvum-infected HCT-8 cells. The assay is classed as cell-based. The conditions noted are these: HCT-8, 48 h, read-out: (b) C.p.* CPE EC50 (μM). The method, then:
Human ileocecal colorectal adenocarcinoma cells (HCT-8 [HRT-18] ATCC, CCL-34) were maintained in T-175 flasks (Corning, 431080) in complete growth medium (RPMI-1640 medium (Gibco, 11875) supplemented with 10% heat-inactivated horse serum (Gibco, 26050), 1× MEM non-essential amino acids (Gibco, 11140), 10 mM HEPES (Gibco, 15630), 100 units/mL penicillin, and 100 units/mL streptomycin) at 37° C. and 5% CO2 in a humidified incubator. Cultures were passaged twice weekly using 10 mL of 1× Phosphate-Buffered Saline (PBS) without Ca^2+ and Mg^2+ (Gibco, 20012) for washing and 3-5 mL per T-175 flask of TrypLE Express Enzyme (Gibco, 12604) for dissociation of adherent cells.
Cryptosporidium parvum oocysts purchased from the Sterling Laboratory, University of Arizona (Iowa isolate) were purified from infected calf feces using discontinuous sucrose and cesium chloride centrifugation gradients and stored in PBS solution containing 0.01% Tween 20, 100 units/mL penicillin and 100 units/mL gentamicin.
Excystaion and infection: Excystation and infection protocols were developed following established methods with some modifications (Gut & Nelson, 1999, Upton et al., 1995, Bessoff et al., 2013). Briefly, oocysts were primed in 1 mL of 10 mM hydrochloric acid in 1× Hank's Balanced Salt Solution (HBSS) (Gibco, 14025) for 10 minutes with agitation at 1000 rpm, 37° C. on an Eppendorf thermomixer, then washed twice with 1 mL of room temperature non-acidic 1× HBSS by centrifugation at 13,000 rpm for 3 minutes at 25° C. Primed oocysts were further excysted at a concentration of 1×10^6 oocysts/μL in parasite infection medium consisting of a pre-warmed and pre-gassed 1:1 formulation of Leibovitz's L-15 medium (Gibco, 11415) and UltraCULTURE medium (Lonza, 12-725F) supplemented with 2 mM sodium taurocholate (Sigma, 86339-1), 10% heat-inactivated horse serum, and 200 μM L-ascorbic acid (Sigma, 95210) at 25° C. for 10 minutes. HCT-8 monolayer cells were infected with excysted cryptosporidium at a specified multiplicity of infection (MOI). All dilutions for subsequent assays were performed in parasite infection medium without sodium taurocholate. Pre-excysted oocysts were enumerated microscopically using a C-Chip disposable hemocytometer (NanoEnTek, DHC-N01).
Compound and assay plate preparation: Compound powders were dissolved in neat DMSO (Fisher, D4121) to 10 mM and stored at 4° C. prior to dilution into source plates. Dilutions were carried out using a Microlab STAR liquid handler (Hamilton) to obtain compound source plates containing the ten-point or eight-point three fold dilutions starting from 10 mM in duplicates. Source plates were stored at 4° C. prior to spotting into assay plates. Before administration, all compound source plates were equilibrated to room temperature. A specified volume of compounds from source plate were spotted to assay plate using an Echo Acoustic liquid handler (LABCYTE, 550) so that the final DMSO concentration was less than 0.5%. Each assay plate a specified number of DMSO-treated negative control wells and a well-studied potent active compound at 100 nM as positive control. As a quality control, all positive and negative-control wells were used to calculate a Z′-value and signal to noise ratio (S:N) for each plate.
Cryptosporidium spp are obligate-intracellular parasites that infect intestinal epithelial cells and the host cell is killed upon parasite egress. […] The loss of epithelial cells is due to both rapid parasite invasion/multiplication/egress and also pro-inflammatory immune response (Adams et al., 1994, Griffiths et al., 1994). We have observed a consistent cytopathic effect (CPE) in HCT-8 cells with C. spp infection the loss of viability of the host cells using CellTiter-Glo reagent.
Confluent HCT-8 cells in T-175 flasks were directly infected with excysted oocysts at an MOI (host to parasite) of 1:2 for C. parvum and 1:4 for C. hominis. […]
For orientation: Cytopathic effects are the visible damage that an infection or toxin causes in cultured cells.

A value given as a limit tells only on which side of the number the result lay.

Chain of C. parvum PI(4)K (Q5CVD3 entry or part of it): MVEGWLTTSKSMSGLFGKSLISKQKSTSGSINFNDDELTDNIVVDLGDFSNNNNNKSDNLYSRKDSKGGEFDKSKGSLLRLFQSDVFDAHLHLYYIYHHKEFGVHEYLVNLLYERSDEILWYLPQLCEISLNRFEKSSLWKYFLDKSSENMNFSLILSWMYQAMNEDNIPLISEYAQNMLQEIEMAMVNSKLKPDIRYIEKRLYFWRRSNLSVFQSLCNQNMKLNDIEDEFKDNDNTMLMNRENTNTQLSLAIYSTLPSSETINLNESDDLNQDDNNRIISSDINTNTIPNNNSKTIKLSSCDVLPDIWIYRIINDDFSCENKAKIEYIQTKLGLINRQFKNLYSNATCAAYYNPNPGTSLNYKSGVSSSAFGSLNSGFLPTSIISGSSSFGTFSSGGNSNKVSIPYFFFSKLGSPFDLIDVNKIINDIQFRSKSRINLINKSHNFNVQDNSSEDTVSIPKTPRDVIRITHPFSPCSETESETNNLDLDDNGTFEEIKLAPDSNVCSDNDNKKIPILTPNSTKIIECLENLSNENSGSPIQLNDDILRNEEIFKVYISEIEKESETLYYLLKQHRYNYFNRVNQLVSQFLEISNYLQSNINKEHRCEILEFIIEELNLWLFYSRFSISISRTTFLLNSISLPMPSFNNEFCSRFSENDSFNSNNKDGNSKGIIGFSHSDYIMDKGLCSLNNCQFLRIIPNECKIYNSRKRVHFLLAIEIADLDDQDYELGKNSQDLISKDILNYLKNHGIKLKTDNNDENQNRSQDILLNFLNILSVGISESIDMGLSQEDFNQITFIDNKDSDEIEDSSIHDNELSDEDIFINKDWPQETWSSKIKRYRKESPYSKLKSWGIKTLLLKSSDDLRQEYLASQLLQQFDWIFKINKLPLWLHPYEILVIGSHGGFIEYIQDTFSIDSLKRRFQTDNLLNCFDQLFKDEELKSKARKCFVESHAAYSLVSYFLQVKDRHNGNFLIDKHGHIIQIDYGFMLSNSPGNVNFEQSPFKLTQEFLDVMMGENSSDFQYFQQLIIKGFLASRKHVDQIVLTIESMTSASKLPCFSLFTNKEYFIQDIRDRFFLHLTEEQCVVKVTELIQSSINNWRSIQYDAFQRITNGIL

Consider `CNC(=O)c1ccc(-c2cnc3cnc(C(=O)N(C)c4ccc(Cl)c(C(=O)OC)c4)cn23)cc1` [Example 2.1, Methyl 2-chloro-5-(N-methyl-3-(4-(methylcarbamoyl)phenyl)imidazo[1,2-a]pyrazine-6-carboxamido)benzoate], for which the IC50 is < 100 nM on C. parvum PI(4)K and > 1000 nM on H.s. PI(4)K. Further, the EC50 in the assay with Cryptosporidium parvum was 0.1 to 1 µM.
The like results for `CN(C(=O)c1ccn2ncc(-c3ccc(C(N)=O)cc3)c2c1)c1ccc(Cl)c(C(=O)O)c1` [Example 1.03, 5-(3-(4-Carbamoylphenyl)-N-methylpyrazolo[1,5-a]pyridine-5-carboxamido)-2-chlorobenzoic acid] were, in that order, < 100 nM, 100 to 1000 nM and > 1 µM.
Consider `COC(=O)c1cc(NC(=O)c2ccn3ncc(-c4ccc(C(N)=O)cc4)c3c2)ccc1Cl` [Example 1.23, Methyl 5-(3-(4-carbamoylphenyl)pyrazolo[1,5-a]pyridine-5-carboxamido)-2-chlorobenzoate], for which the IC50 on C. parvum PI(4)K and at H.s. PI(4)K was > 1000 nM throughout. Besides, the EC50 in the assay with Cryptosporidium parvum is > 1 µM.
On to `COC(=O)c1cc(N(C)C(=O)c2ccn3ncc(-c4ccc(C(N)=O)cc4C)c3c2)ccc1Cl` [Example 1.21, Methyl 2-chloro-5-(N-methyl-3-(2-methyl-4-(carbamoyl)phenyl)pyrazolo[1,5-a]pyridine-5-carboxamido)benzoate], for which the IC50 at C. parvum PI(4)K was < 100 nM; on H.s. PI(4)K, > 1000 nM. Besides, in the assay on Cryptosporidium parvum, the EC50 lay within 0.1 to 1 µM.
Turning to `CNC(=O)c1ccc(-c2cnn3ccc(C(=O)Nc4ccc(Cl)c(C(=O)OC)c4)cc23)cc1` [Example 1.24, Methyl 2-chloro-5-(3-(4-(methylcarbamoyl)phenyl)pyrazolo[1,5-a]pyridine-5-carboxamido)benzoate], the IC50 against C. parvum PI(4)K and on H.s. PI(4)K was > 1000 nM in each case. The EC50 in the assay with Cryptosporidium parvum is > 1 µM.
As for `CN(C(=O)c1ccn2ncc(-c3ccc(C(N)=O)cc3)c2c1)c1ccc(Cl)c(C(=O)OCCN2CCOCC2)c1` [Example 1.08, 2-Morpholinoethyl 5-(3-(4-carbamoylphenyl)-N-methylpyrazolo[1,5-a]pyrdine-5-carboxamido)-2-chlorobenzoate], the values for the IC50 at C. parvum PI(4)K and on H.s. PI(4)K were < 100 nM and > 1000 nM, respectively. Besides, the EC50 in the assay on Cryptosporidium parvum was in the range of 0.1 to 1 µM.
In the case of `CNC(=O)c1ccc(-c2cnn3ccc(C(=O)N(C)c4ccc(Cl)c(C(=O)OC)c4)cc23)cc1C` [Example 1.22], the IC50 against C. parvum PI(4)K was 100 to 1000 nM; on H.s. PI(4)K, > 1000 nM. Moreover, the EC50 with Cryptosporidium parvum is > 1 µM.
As for `COC(=O)c1cc(N(C)C(=O)c2ccn3ncc(-c4ccc(C(N)=O)cc4)c3c2)ccc1OC(F)(F)F` [Example 1.25, Methyl 5-(3-(4-carbamoylphenyl)-N-methylpyrazolo[1,5-a]pyridine-5-carboxamido)-2-(trifluoromethoxy)benzoate], the IC50 is < 100 nM against C. parvum PI(4)K and > 1000 nM at H.s. PI(4)K. In the assay with Cryptosporidium parvum, the EC50 lay within 0.1 to 1 µM.
As to `CNC(=O)c1ccc(-c2cnn3ccc(C(=O)N(C)c4ccc(Cl)c(C(=O)OCCN5CCOCC5)c4)cc23)cc1` [Example 1.19, 2-Morpholinoethyl 2-chloro-5-(N-methyl-3-(4-(methylcarbamoyl)phenyl)pyrazolo[1,5-a]pyridine-5-carboxamido)benzoate], the IC50 at C. parvum PI(4)K is < 100 nM; on H.s. PI(4)K, 100 to 1000 nM. Further, in the assay with Cryptosporidium parvum, the EC50 is 0.1 to 1 µM.
On to `CCOC(=O)OC(C)OC(=O)c1cc(N(C)C(=O)c2ccn3ncc(-c4ccc(C(N)=O)cc4)c3c2)ccc1Cl` (racemic) [Example 1.14, rac-1-((Ethoxycarbonyl)oxy)ethyl 5-(3-(4-carbamoylphenyl)-N-methylpyrazolo[1,5-a]pyridine-5-carboxamido)-2-chlorobenzoate], for which the IC50 against C. parvum PI(4)K is 100 to 1000 nM; at H.s. PI(4)K, > 1000 nM. Besides, in the assay on Cryptosporidium parvum, the EC50 is > 1 µM.
In the case of `CNC(=O)c1ccc(-c2cnn3ccc(C(=O)N(C)c4ccc(Cl)c(C(=O)O)c4)cc23)cc1` [Example 1.18, 2-Chloro-5-(N-methyl-3-(4-(methylcarbamoyl)phenyl)pyrazolo[1,5-a]pyridine-5-carboxamido)benzoic acid], the IC50 against C. parvum PI(4)K was < 100 nM; at H.s. PI(4)K, 100 to 1000 nM. Besides, the EC50 in the assay on Cryptosporidium parvum was > 1 µM.
On to `COC(=O)c1cc(N(C)C(=O)c2ccn3ncc(-c4ccc(C(N)=O)cc4)c3c2)ccc1C#N` [Example 1.27, Methyl 5-(3-(4-carbamoylphenyl)-N-methylpyrazolo[1,5-a]pyridine-5-carboxamido)-2-cyanobenzoate], for which the IC50 on C. parvum PI(4)K was < 100 nM; on H.s. PI(4)K, > 1000 nM. Moreover, the EC50 in the assay on Cryptosporidium parvum is < 0.1 µM.

In general, IC50 refers to the point on the concentration scale where inhibition reaches its midpoint. As a reminder, the EC50 is the midpoint of the concentration-response curve.
